Tested on: patients with inadequately managed, severe chronic low back pain with or without a neuropathic pain component
Test: EuroQol-5 Dimension (EQ-5D) health status index score, same trial
Assay type: in vivo, human patients
Conditions: Baseline to Week 12
Text: This was a multicenter, multinational, open-label, effectiveness phase IIIb trial to evaluate effectiveness and safety of tapentadol prolonged release treatment in patients with inadequately managed, severe chronic low back pain with or without a neuropathic pain component. Patients taking WHO Step II analgesics discontinued those analgesics before starting study medication; patients taking Step I analgesics and/or centrally acting co-analgesics continued on the same dose. […] All patients received tapentadol prolonged release (50-250 mg bid) for up to 12 weeks (5-week titration period and a 7-week maintenance period). Tapentadol immediate release (IR) 50 mg (twice a day, hours apart) was permitted (combined total daily dose of tapentadol prolonged release and tapentadol IR, 500 mg/day). The primary efficacy endpoint was the change from Baseline to Week 6 (when tapentadol prolonged release doses were stable) in average pain intensity on the 11-point NRS-3 using the last observation carried forward (LOCF) for imputing missing scores. […]
All subjects completed Short Form-36 (SF-36) and EuroQol-5 Dimension (EQ-5D) questionnaires and the Hospital Anxiety and Depression Scale (HADS). […] Adverse events were recorded throughout the trial.

## CC[C@@H](c1cccc(O)c1)[C@@H](C)CN(C)C [tapentadol, (−)-(1R,2R)-3-(3-dimethylamino-1-ethyl-2-methyl-propyl)-phenol]
Patients painDETECT negative, P=0.0022
  mean (SD) change in the EQ-5D health status index score: 0.18
Patients painDETECT positive, P<0.0001
  mean (SD) change in the EQ-5D health status index score: 0.36 (0.32)

Source: patent US9980927B2, “Use of tapentadol for inhibiting and/or treating depression and anxiety” (Gruenenthal GmbH, priority 2011, dated 2018)
